Emax and Ki data for four molecules are collected here from patent US5276043A, “Method for treatment of neurodegenerative diseases” (priority 1993, dated 1994).

Assay [1] concerns synaptosomes from the striatal area of rat brain. Briefly: [3H]-dopamine release from rat striatal synaptosomes. Conditions: read-out: Dopamine Release (percent release relative to (S)-(-)-nicotine). It counts as cell-based, Sprague-Dawley rats. The protocol:
Dopamine release was measured by preparing synaptosomes from the striatal area of rat brain obtained from Sprague-Dawley rats generally according to the procedures set forth by Nagy, et al., J. Neurochem., Vol. 43, pp. 1114-1123 (1984). Striata from 4 rats were homogenized in 2 ml of 0.32M sucrose buffered with 5 mM HEPES (pH 7.5), using a glass-teflon tissue grinder. The homogenate was diluted to 5 ml with additional homogenization solution and centrifuged at 1000×g for 10 min. This procedure was repeated on the new pellet and the resulting supernatant was centrifuged at 12,000×g for 20 min. A 3 layer discontinuous Percoll gradient consisting of 16 percent, 10 percent and 7.5 percent Percoll in HEPES-buffered sucrose was made with the final pellet dispersed in the top layer. After centrifugation at 15,000×g for 20 min., the synaptosomes were recovered above the 16 percent layer with a pasteur pipette, diluted with 8 ml of perfusion buffer (128 mM NaCl, 2.4 mM KCl, 3.2 mM CaCl2, 1.2 mM KH2 PO4, 1.2 mM MgSO4, 25 mM HEPES pH 7.4, 10 mM dextrose, 1 mM ascorbate, 0.01 mM pargyline), and centrifuged at 15,000×g for 20 min. The new pellet was collected and re-suspended in perfusion buffer. The synaptosome suspension was incubated for 10 min. at 37° C. Then [^3 H]-dopamine (Amersham, 40-60 Ci/mmol) was added to the suspension to give a final concentration of 0.1 μM in suspension, and the suspension was incubated for another 5 min. Using this method, 30 to 90 percent of the dopamine was taken up into the synaptosomes, as determined by scintillation counting following filtration through glass fiber filters soaked with 0.5 percent polyethyleneimine. A continuous perfusion system was used to monitor release following exposure to each ligand. The ligands are named in Table I. Synaptosomes were loaded onto glass fiber filters (Gelman type A/E). Perfusion buffer was dripped onto the filters (0.2-0.3 ml/min.) and pulled through the filters with a peristaltic pump. Synaptosomes were washed with perfusion buffer for a minimum of 20 min. before addition of the ligand. After the addition of a 0.2 ml of a 20 μM solution of ligand, the perfusate was collected into scintillation vials at 1 min. intervals and the dopamine released was quantified by scintillation counting. Peaks of radioactivity released above background were summed and the average basal release during that time was subtracted from the total. Release was expressed as a percentage of release obtained with an equal concentration of (S)-(-)-nicotine.

The target in assay [2] is high affinity nicotinic receptors. Briefly: Inhibition of L-[3H]nicotine binding to mouse brain membrane preparations. Set-up: species or system Mice (DBA strain). Conditions: mouse brain membranes, 10 nM L-[3H]nicotine, 2 hr at 4° C.; Ki calculated from IC50 by Cheng method; read-out: Ki (concentration of compound which inhibits 50 percent of L-[3H]nicotine binding). The protocol: Mice (DBA strain) were maintained on a 12 hour light/dark cycle and were allowed free access to water and food supplied by Wayne Lab Blox, Madison, Wis. Animals used in the present studies were 60 to 90 days of age and weighed 20 to 25 g. Brain membrane preparations were obtained from pooled brain tissue of both males and females.
Mice were killed by cervical dislocation. Brains were removed and placed on an ice-cold platform. The cerebellum was removed and the remaining tissue was placed in 10 volumes (weight:volume) of ice-cold buffer (Krebs-RingersHEPES:NaCl, 118 mM; KCl, 4.8 mM; CaCl2, 2.5 mM; MgSO4, 1.2 mM; HEPES, 20 mM; pH to 7.5 with NaOH) and homogenized with a glass-Teflon tissue grinder. The resulting homogenate was centrifuged at 18000×g for 20 min. and the resulting pellet was resuspended in 20 volumes of water. After 60 min. incubation at 4° C., a new pellet was collected by centrifugation at 18000×g for 20 min. After resuspension in 10 volumes of buffer, a new final pellet was again collected by centrifugation at 18000×g for 20 min. Prior to each centrifugation step, the suspension was incubated at 37° C. for 5 min. to promote hydrolysis of endogenous acetylcholine. […] Protein was determined by the method of Lowry, et al., J. Biol. Chem., Vol. 193, pp. 265-275 (1951), using bovine serum albumin as the standard.
The binding of L-[^3 H]nicotine was measured using a modification of the method of Romano, et al., Science, Vol. 210, pp. 647-650 (1980) as described previously by Marks, et al., Mol. Pharmacol., Vol. 30, pp. 427-436 (1986). The binding of L-[^3 H]nicotine was measured using a 2 hr. incubation at 4° C. […] Nonspecific binding was determined by inclusion of 10 μM nonradioactive nicotine in the incubations. The inhibition of L-[^3 H]nicotine binding by test compounds was determined by including one of eight different concentrations of the test compound in the incubation. […] Inhibition constants (Ki values) were calculated from the IC50 values using the method of Cheng, et al., Biochem. Pharmacol., Vol. 22, pp. 3099-3108 (1973). […]

Setting [3] is: 0.2 ml of 20 μM ligand solution, relative to equal concentration of (S)-(-)-nicotine.

Read-outs that look alike come from different tables or passages of the source.

Regarding `Fc1cncc(C2=NCCCC2)c1` [5-fluoroanabaseine], the Emax at 20 µM in assay [1] (setting [3]) was 50%.

Consider `CN1CCCCC1c1cccnc1` (stereo not shown) [methyl anabasine], for which, in assay [2], the Ki is 0.45 µM. In addition, the Emax at 20 µM in assay [1] was 5%. For `c1cncc(C2=NCCC2)c1` [myosmine], in assay [2], the Ki is 3.7 µM. In addition, in assay [1] (setting [3]), the Emax at 20 µM was 10%. For `C1=CCC(c2cccnc2)NC1` (racemic) [anatabine] the same measures were 0.24 µM and 70%.
